# Experimental data as given in patent EP0445920A2, “Use of ethoxy phenoxy acetic acid derivatives against diabetes” (IMPERIAL CHEMICAL INDUSTRIES PLC, priority 1990, dated 1991).
# System: oral glucose tolerance in rats
# Assay: Oral glucose tolerance test in fasted rats (blood glucose by glucose oxidase method)
# Type: in vivo, Male, Alderley Park, Wistar rats
# Details: rats fasted 24 hours, Glibenclamide 5 mg/kg p.o. at -2.0 h, Compound A 0.1 mg/kg p.o. at -0.5 h, M ± SEM, eight rats/group; for Glucose levels, time relative to oral glucose (minutes) 0: 0 min (before oral glucose load 1g/kg); for Glucose levels, time relative to oral glucose (minutes) 20: 20 min after oral glucose load 1g/kg; for Glucose levels, time relative to oral glucose (minutes) 60: 60 min after oral glucose load 1g/kg; for Glucose levels, time relative to oral glucose (minutes) 120: 120 min after oral glucose load 1g/kg
# Description: Effects of (S)-4-[2-(2-hydroxy-3-phenoxypropylamino)ethoxy]-N-(2-methoxyethyl)phenoxyacetamide on glibenclamide induced improvements in oral glucose tolerance in rats Glibenclamide is a sulphonylurea commonly used for the treatment of non-insulin dependent diabetes. The effects of (S)-4-[2-(2-hydroxy-3-phenoxypropylamino)ethoxy]-N-(2-methoxyethyl) phenoxyacetamide (compound A) were assessed on glibenclamide induced improvements in oral glucose tolerance. Male, Alderley Park, Wistar rats (weight range 125-150 g) were caged in groups of four in a room with normal lighting, at a temperature of 22°C. The animals were allowed free access to water and chow during an acclimatisation period of five days. At the end of this period the rats were fasted for 24 hours. After fasting a group of 8 rats was anaesthetised and a cardiac blood sample taken. The remaining rats were dosed orally according to the schedule below: [table] Glibenclamide and Compound A were dissolved in an aqueous 0.025% solution of polysorbate. The dosage volume was 0.5 ml/100 g body weight. Thirty minutes after dosing according to the schedule above a further eight rats from each group were bled. The remaining rats were then given an oral glucose load (1g/kg) dosed as a 20% solution of D-glucose (0.5 ml/100 g). Groups of eight rats for each treatment were then anaesthetised and bled 20, 60 and 120 minutes after the glucose load. Glucose levels were assayed using a glucose oxidase method on a KDK glucose analyser (Clandon).
Structure (SMILES),"Glucose levels, time relative to oral glucose (minutes) 0 [mmol]","Glucose levels, time relative to oral glucose (minutes) 20 [mmol]","Glucose levels, time relative to oral glucose (minutes) 60 [mmol]","Glucose levels, time relative to oral glucose (minutes) 120 [mmol]"
"COCCNC(=O)COc1ccc(OCCNC[C@H](O)COc2ccccc2)cc1 [Compound A, (S)-4-[2-(2-hydroxy-3-phenoxypropylamino)ethoxy]-N-(2-methoxyethyl) phenoxyacetamide]",2.77 ± 0.10,6.16 ± 0.23,5.37 ± 0.28,4.99 ± 0.20
COc1ccc(Cl)cc1C(=O)NCCc1ccc(S(=O)(=O)NC(=O)NC2CCCCC2)cc1 [Glibenclamide],3.16 ± 0.13,7.77 ± 0.45,4.4 ± 0.38,3.67 ± 0.27
